Laboratory results published in paper PMC13429874, “ABHD2 activity is not required for the non-genomic action of progesterone on human sperm” (Human Reproduction (Oxford, England), 2026).
Where two headings read alike, the source gives them in different places.

Tests used:
ABHD2^L33–E425 [1] = molecular target: T1, ABHD2^L33–E425 (Homo sapiens, UniProt P08910); assay: Differential scanning fluorimetry (DSF) with purified ABHD2^L33–E425; type: binding; details: for effect on heat-induced denaturation of ABHD2^L33–E425 (DSF binding): 40 µM steroid
T1 construct: expression for ABHD2 amino acids L33–E425, in which a predicted transmembrane domain (amino acids 1–32) is removed; His6-FLAG (N); made in house; host or cells: E. coli BL21(DE3)-R3-pRARE2
T1 sequence (P08910 33-425): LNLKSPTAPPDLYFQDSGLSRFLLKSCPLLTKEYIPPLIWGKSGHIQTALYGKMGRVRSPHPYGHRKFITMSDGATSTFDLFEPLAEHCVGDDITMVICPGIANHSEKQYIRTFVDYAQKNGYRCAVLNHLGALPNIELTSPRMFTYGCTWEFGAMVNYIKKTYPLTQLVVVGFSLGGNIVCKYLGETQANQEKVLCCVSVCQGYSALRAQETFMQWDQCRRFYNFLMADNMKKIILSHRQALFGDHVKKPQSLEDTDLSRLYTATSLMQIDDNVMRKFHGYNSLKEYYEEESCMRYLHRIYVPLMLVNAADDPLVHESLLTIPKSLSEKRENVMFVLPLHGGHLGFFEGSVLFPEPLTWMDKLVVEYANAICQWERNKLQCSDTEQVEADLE

human ABHD11 = molecular target: T2, human ABHD11 (Homo sapiens, UniProt Q8NFV4); assay: ABHD11 colorimetric assay with p-nitrophenyl butyrate; type: biochemical; details: 10 µM compound, 500 µM p-NPB
T2 construct: residues V34—V315 of human ABHD11; His6-TEV site (N); made in house; host or cells: E. coli
T2 sequence (Q8NFV4 25-306 limits assumed): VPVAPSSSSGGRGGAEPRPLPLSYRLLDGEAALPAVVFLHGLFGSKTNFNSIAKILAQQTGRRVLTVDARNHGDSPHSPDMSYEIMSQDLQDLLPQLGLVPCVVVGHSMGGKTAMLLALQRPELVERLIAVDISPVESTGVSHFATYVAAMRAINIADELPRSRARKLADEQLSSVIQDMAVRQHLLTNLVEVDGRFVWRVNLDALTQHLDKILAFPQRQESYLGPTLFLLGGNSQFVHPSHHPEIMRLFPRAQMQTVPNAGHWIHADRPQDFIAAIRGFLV
Method: (§1) Enzymatic activities of ABHD10 and ABHD11 were measured in a colorimetric assay using p-nitrophenyl butyrate (p-NPB) as substrate. Enzymes at 1500 nM ABHD10 and 125 nM ABHD11 in 20 mM HEPES pH 7.5, 150 mM NaCl, and 2% (v/v) DMSO were pre-incubated in 96-well plates with 50 µM test compound for 30 min at 4°C. Plates were then equilibrated at 37°C for 2 min, and reactions were initiated by adding 160 µl of pre-warmed substrate solution (same buffer with 625 µM p-NPB) to a total volume of 200 µl, yielding final assay concentrations of 300 nM ABHD10, 25 nM ABHD11, and 500 µM pNPB. The substrate solution was prepared immediately before addition to the enzyme mixtures. Absorbance at 405 nm was recorded on a SpectraMax iD3 plate reader (Molecular Devices) for 20 min with continuous monitoring at 30 s intervals.

human ABHD10 = molecular target: T3, human ABHD10 (Homo sapiens, UniProt Q9NUJ1); assay: ABHD10 colorimetric assay with p-nitrophenyl butyrate; type: biochemical; details: 10 µM compound, 500 µM p-NPB
T3 construct: Constructs encoding amino acids T53—N306 of human ABHD10; His6-TEV site (N); made in house; host or cells: E. coli
T3 sequence (Q9NUJ1 53-306): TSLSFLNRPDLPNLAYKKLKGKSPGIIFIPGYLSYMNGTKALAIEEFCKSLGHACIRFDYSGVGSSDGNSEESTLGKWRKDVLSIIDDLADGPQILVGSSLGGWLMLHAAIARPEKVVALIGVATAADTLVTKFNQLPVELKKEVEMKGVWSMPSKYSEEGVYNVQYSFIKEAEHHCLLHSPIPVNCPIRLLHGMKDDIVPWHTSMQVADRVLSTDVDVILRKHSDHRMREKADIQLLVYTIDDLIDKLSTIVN
Method: as §1

ABHD2^L33–E425 [2] = molecular target: T1, ABHD2^L33–E425; assay: ABHD2^L33-E425 fluorometric enzymatic activity assay with 7-HCA substrate; type: biochemical
[3] = molecular target: T4, full-length human ABHD2 (ABHD2^FL) (Homo sapiens, UniProt P08910); assay: ABHD2^FL enzymatic activity assay with 7-HCA substrate; type: biochemical
T4 construct: TEV site-eGFP-8xHis (C, cleaved yes); made in house; host or cells: SF9 insect cells (baculovirus)
T4 sequence (P08910 1-425): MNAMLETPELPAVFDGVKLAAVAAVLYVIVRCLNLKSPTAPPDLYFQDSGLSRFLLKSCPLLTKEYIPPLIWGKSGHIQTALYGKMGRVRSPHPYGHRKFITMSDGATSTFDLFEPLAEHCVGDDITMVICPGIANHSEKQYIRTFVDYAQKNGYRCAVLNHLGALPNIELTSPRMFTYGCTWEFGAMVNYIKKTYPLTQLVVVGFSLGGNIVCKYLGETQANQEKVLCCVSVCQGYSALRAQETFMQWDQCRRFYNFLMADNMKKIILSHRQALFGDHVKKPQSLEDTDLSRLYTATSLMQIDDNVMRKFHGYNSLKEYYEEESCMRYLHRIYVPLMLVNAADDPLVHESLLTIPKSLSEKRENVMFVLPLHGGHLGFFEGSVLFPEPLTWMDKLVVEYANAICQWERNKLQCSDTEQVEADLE

[4] = molecular target: T4, full-length human ABHD2 (ABHD2^FL); assay: ABHD2^FL enzymatic activity assay with resorufin butyrate (RB) substrate; type: biochemical
CatSper = details: cited from earlier work
ABHD2^FL = molecular target: T5, ABHD2^FL (Homo sapiens, UniProt P08910); assay: Differential scanning fluorimetry (DSF) with purified ABHD2^FL; type: binding; details: 20 µM
T5 construct: TEV site-eGFP-8xHis (C, cleaved yes); made in house; host or cells: SF9 insect cells (baculovirus)
T5 sequence (P08910 1-425): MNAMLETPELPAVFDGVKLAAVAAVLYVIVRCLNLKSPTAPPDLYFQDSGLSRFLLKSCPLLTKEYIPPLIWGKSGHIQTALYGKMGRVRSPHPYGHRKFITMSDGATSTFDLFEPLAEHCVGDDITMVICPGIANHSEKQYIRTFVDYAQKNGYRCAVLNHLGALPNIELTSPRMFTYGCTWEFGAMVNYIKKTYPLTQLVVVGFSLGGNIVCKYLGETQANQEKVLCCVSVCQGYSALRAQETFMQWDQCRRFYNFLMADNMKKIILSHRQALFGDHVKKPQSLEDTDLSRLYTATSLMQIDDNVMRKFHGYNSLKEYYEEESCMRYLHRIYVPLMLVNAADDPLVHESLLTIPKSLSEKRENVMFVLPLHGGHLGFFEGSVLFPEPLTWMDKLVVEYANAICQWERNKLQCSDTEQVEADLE

human sperm = assay: Sperm hyperactivation assay (CASA); type: cell-based; details: 3 µM, 30 min
Method: Sperm hyperactivation was assessed in human sperm purified by density gradient centrifugation. Semen samples (n = 7) were allowed to liquefy for 15–30 min at 37°C, and up to 2 ml of liquified semen was layered onto a two-step GM501 gradient system (45%/90%; Gynemed; Sierksdorf, Germany) pre-equilibrated at 37°C. Gradients were centrifuged for 20 min at 400 × g (no break). The 90% pellet was collected, washed in SpermActive medium (Gynemed; composition per manufacturer: NaCl, KCl, MgSO4.7H2O, KH2PO4, 1.77 mM CaCl2.2H2O, D(+)-glucose anhydrous, sodium pyruvate, sodium lactate, EDTA, alanyl-glutamine, essential and non-essential amino acids, 25.71 mM NaHCO3, 15 mM HEPES, 5 g/l human serum albumin, 10 mg/l gentamicin, and phenol red), and incubated for at least 2 h at 37°C, 5% CO2.
For compound testing, sperm suspensions with 7.5 × 10^6 sperm/ml in SpermActive were treated with either DMSO (vehicle) or 10 µM test compound. For basal and induced hyperactivation conditions, DMSO or progesterone (3 µM), respectively, was added. Samples were incubated for 30 min at 37°C, 5% CO2, before motility analysis.
Motility was analyzed using a CASA system (CEROSII^TM Animal Motility, software version 1.16; Hamilton Thorne, Beverly, MA, USA), mounted on an Axiolab 5 microscope (Zeiss, Germany), equipped with a TPi-SX Thermal Plate (Tokai Hit; Shizuoka-ken, Japan) and a JAI CM-040-GE CCD camera (JAI; Tokyo, Japan). Leja slides (20 µm chamber depth; Leja Products B.V., Nieuw-Vennep, The Netherlands) were pre-warmed to 37°C, cleaned with lens paper, and loaded by capillary action with 6 µl sperm suspension; capillary correction was set to 1.3. Sperm tracks were recorded at 37°C using a 10× negative-phase objective, acquiring 60 frames at 60 Hz with 4 ms exposure and gain set to 600. For each sample and condition, 300–500 motile sperm from at least 10 non-overlapping fields were analyzed. Hyperactive sperm were identified using the SORT function with the following Boolean argument: VCL > 150 µm/s and LIN < 50% and ALH > 7 µm. For each sample and condition, the percentage of hyperactive sperm was normalized to the percentage of motile sperm, and the mean of two technical duplicates was reported.
Statistical analysis was performed using GraphPad Prism 10 for Windows (version 10.6.1). Data normality was assessed using Shapiro–Wilk test. Differences between basal and induced hyperactivation were evaluated using a paired t-test, with effective pairing confirmed across all comparisons. P < 0.05 was considered statistically significant.

[5] = molecular target: the molecule itself; assay: SEC; HiLoad 16/600 Superdex 75 pg, final purification step after nickel affinity; pure fractions concentrated in 20 mM HEPES pH 8, 500 mM NaCl, 10% (v/v) glycerol, 1 mM TCEP
[6] = 5 µM steroid or triterpenoid, 300 nM 7-HCA

O=C(N1CCCCC1)N1CCCCC1c1ccccc1 (centres unmarked) [Compound 2]
effect on melting temperature / thermal stability of ABHD2^L33-E425 (DSF), in words (ABHD2^L33–E425 [1]; 10 µM compound, 30 min pre-incubation): increased melting temperature
ΔTm shift for ABHD2^L33-425 determined by DSF (ABHD2^L33–E425 [1]; purified protein): 13 °C
inhibition of ABHD11 (human ABHD11): no detectable inhibition
inhibition of ABHD10 (human ABHD10): no detectable inhibition
IC50 (ABHD2^L33–E425 [2]; 10 nM enzyme, 10 µM 7-HCA, read-out: IC50 for ABHD2^L33-425, fluorometric assay using 7-HCA): 320 nM
IC50 ([3]; Supplementary Table S2, read-out: IC50 measured in ABHD2^FL in the 7-HCA Assay): 490 nM

CCCCCCCCCCC[C@@H](C[C@@H]1OC(=O)[C@H]1CCCCCC)OC(=O)[C@H](CC(C)C)NC=O [Orlistat]
IC50 ([3]; 5 µM 7-HCA, read-out: IC50, ABHD2^FL, 7-HCA assay): 969 nM
IC50 ([4]; 15 µM RB): 305 nM

CCCC(=O)Oc1ccc2nc3ccc(=O)cc-3oc2c1 [RB, resorufin butyrate]
Km ([4]; 25 nM ABHD2^FL, read-out: Km of substrate hydrolysis by ABHD2^FL): 23 µM

C=C(C)[C@@H]1CC[C@]2(C)CC[C@]3(C)[C@H](CC[C@@H]4[C@@]5(C)CC[C@H](O)C(C)(C)[C@@H]5CC[C@]43C)[C@@H]12 [lupeol]
effect on heat-induced denaturation of ABHD2^L33–E425 (DSF binding) (ABHD2^L33–E425 [1]; 30 min pre-incubation): did not affect
progesterone-induced CatSper activation (CatSper; ref Brenker et al., 2018, Rehfeld, 2020, Rehfeld and Marcus Pedersen, 2022): do not interfere
progesterone-induced Ca2+ influx and hyperactivation (CatSper; ref Mannowetz et al., 2017): inhibitors
effect on enzymatic activity of purified ABHD2^L33–E425 (ABHD2^L33–E425 [2]; [6]): weak inhibitory action

COC(=O)[C@]1(C)CC[C@]2(C)CC[C@]3(C)C4=CC=C5C(=CC(=O)C(O)=C5C)[C@]4(C)CC[C@@]3(C)[C@@H]2C1 [pristimerin]
progesterone-induced Ca2+ influx and hyperactivation (CatSper): inhibitors
progesterone-induced CatSper activation (CatSper): do not interfere
effect on enzymatic activity of purified ABHD2^L33–E425 (ABHD2^L33–E425 [2]): did not affect
effect on enzymatic activity of purified ABHD2^FL [3]: did not affect

CC(=O)[C@H]1CC[C@H]2[C@@H]3CCC4=CC(=O)CC[C@]4(C)[C@H]3CC[C@]12C [progesterone]
effect on heat-induced denaturation of ABHD2^L33–E425 (DSF binding) (ABHD2^L33–E425 [1]; 30 min pre-incubation): did not affect
effect on enzymatic activity of purified ABHD2^L33–E425 (ABHD2^L33–E425 [2]; [6]): did not alter
effect on heat-induced denaturation of ABHD2^FL (DSF binding) (ABHD2^FL): did not affect
effect on enzymatic activity of purified ABHD2^FL ([3]; 7-HCA and RB substrates (Suppl. Fig. S4A,B), weak effects at ≥5 µM): did not alter
fraction of hyperactivated sperm upon stimulation (human sperm): increased

B1: Truncated ABHD2 (ABHD2^L33–E425) (domain or fragment, human, UniProt P08910 33-425, looked up)
chain: LNLKSPTAPPDLYFQDSGLSRFLLKSCPLLTKEYIPPLIWGKSGHIQTALYGKMGRVRSPHPYGHRKFITMSDGATSTFDLFEPLAEHCVGDDITMVICPGIANHSEKQYIRTFVDYAQKNGYRCAVLNHLGALPNIELTSPRMFTYGCTWEFGAMVNYIKKTYPLTQLVVVGFSLGGNIVCKYLGETQANQEKVLCCVSVCQGYSALRAQETFMQWDQCRRFYNFLMADNMKKIILSHRQALFGDHVKKPQSLEDTDLSRLYTATSLMQIDDNVMRKFHGYNSLKEYYEEESCMRYLHRIYVPLMLVNAADDPLVHESLLTIPKSLSEKRENVMFVLPLHGGHLGFFEGSVLFPEPLTWMDKLVVEYANAICQWERNKLQCSDTEQVEADLE
notes: human ABHD2 (alpha/beta hydrolase domain-containing protein 2), Uniprot ID P08910, amino acids L33-E425; the predicted transmembrane domain (amino acids 1-32) is removed; No tag cleavage is described; Further construct details may be in the Supplementary Materials and Methods; also called ABHD2^L33-425; ABHD2 amino acids L33–E425; source: E. coli BL21(DE3)-R3-pRARE2, purified (nickel-sepharose, …)
stoichiometry N [5]: 4
